What all share (format): biochemical
Assay [1] addresses human JAK2 catalytic kinase (JH1) domain (Homo sapiens (Human), UniProt O60674). Briefly: ADP-Glo Kinase Assay, recombinant JAK2 catalytic kinase (JH1) domain. Conditions: recombinant JH1 domain 0.2 nM, 15 μM ATP, JAK3-974 peptide, mean, read-out: JAK2 biochem IC50 (nM) Mean. The protocol:
(§1) Compounds of the disclosure were assessed for their ability to inhibit TYK2, JAK1, JAK2, and JAK3 activity. The inhibitory properties of the compounds of the disclosure described herein can be evidenced by testing in any one of the following protocols.
(§2) The kinase activity of recombinantly generated catalytic kinase (also known as JH1) domain of human JAK1, JAK2, JAK3 and TYK2 were evaluated in a plate-based assay using the ADP-Glo™ Kinase Assay platform. Specifically, 4 nM of recombinant JAK1 kinase domain is used to phosphorylate 50 μM of a JAK3-342 (sequence ALVDGYFRLTT) peptide in the presence of 35 μM ATP. Catalytic activities of recombinant JAK2, JAK3 and TYK2 kinase domain (0.2, 0.3 and 2 nM, respectively) are evaluated by the phosphorylation status of the JAK3-974 (50 μM; sequence LPLDKDYYVVR) peptide with the addition of ATP (15, 4 and 10 μM, respectively). The reactions proceed for 100 minutes and the catalytic activity is quantified by first depleting the unused ATP, converting the hydrolyzed ADP into ATP to generate luminescence in a luciferase reaction; which is the basis of the ADP-Glo platform. Compounds are tested at either 10 μM or 1 μM top concentration, 11 points of 3-fold dilution. The data is normalized and the percent activity versus log concentration of compound is fitted with a 4-parameter logistic model to generate a curve and an IC50 value.

For assay [2], the target named is human JAK3 catalytic kinase (JH1) domain (Homo sapiens (Human), UniProt P52333). Briefly: ADP-Glo Kinase Assay, recombinant JAK3 catalytic kinase (JH1) domain. The note with it: recombinant JH1 domain 0.3 nM, 4 μM ATP, JAK3-974 peptide, mean, read-out: JAK3 biochem IC50 (nM) Mean. The protocol: as §1, §2
The target in assay [3] is human JAK1 catalytic kinase (JH1) domain (Homo sapiens (Human), UniProt P23458). In words: ADP-Glo Kinase Assay, recombinant JAK1 catalytic kinase (JH1) domain. The note with it: recombinant JH1 domain 4 nM, 35 μM ATP, JAK3-342 peptide, mean, read-out: JAK1 biochem IC50 (nM) Mean. The protocol: as §1, §2
The target of assay [4] is human TYK2 catalytic kinase (JH1) domain (Homo sapiens (Human), UniProt P29597). In words: ADP-Glo Kinase Assay, recombinant TYK2 catalytic kinase (JH1) domain. The note with it: recombinant JH1 domain 2 nM, 10 μM ATP, JAK3-974 peptide, mean, read-out: TYK2 biochem IC50 (nM) Mean. As for the experimental part: as §1, §2
Sequence of human TYK2 catalytic kinase (JH1) domain (P29597 897-1176): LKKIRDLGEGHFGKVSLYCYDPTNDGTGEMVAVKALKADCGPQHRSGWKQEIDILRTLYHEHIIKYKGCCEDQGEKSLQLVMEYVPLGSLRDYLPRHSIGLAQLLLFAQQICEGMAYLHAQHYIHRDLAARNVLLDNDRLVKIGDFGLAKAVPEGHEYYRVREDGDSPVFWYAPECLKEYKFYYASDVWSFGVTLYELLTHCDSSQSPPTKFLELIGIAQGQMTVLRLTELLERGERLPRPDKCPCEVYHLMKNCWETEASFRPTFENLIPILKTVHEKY

Sequence of human JAK1 catalytic kinase (JH1) domain (P23458 875-1153): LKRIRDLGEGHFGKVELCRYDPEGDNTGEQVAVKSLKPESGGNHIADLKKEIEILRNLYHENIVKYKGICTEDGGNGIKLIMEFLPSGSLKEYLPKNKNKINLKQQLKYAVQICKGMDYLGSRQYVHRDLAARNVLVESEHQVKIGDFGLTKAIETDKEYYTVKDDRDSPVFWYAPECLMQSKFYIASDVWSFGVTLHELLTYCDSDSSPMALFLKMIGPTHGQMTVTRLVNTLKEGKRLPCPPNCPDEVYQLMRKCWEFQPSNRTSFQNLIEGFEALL
Sequence of human JAK3 catalytic kinase (JH1) domain (P52333 822-1111): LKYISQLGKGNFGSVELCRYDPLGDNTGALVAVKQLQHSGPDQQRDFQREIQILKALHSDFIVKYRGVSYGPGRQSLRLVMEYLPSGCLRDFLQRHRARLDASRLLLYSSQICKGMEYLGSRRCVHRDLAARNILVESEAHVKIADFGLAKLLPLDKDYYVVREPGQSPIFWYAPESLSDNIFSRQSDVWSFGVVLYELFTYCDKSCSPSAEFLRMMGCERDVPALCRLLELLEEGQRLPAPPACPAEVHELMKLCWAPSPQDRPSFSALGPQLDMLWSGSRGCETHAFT
Sequence of human JAK2 catalytic kinase (JH1) domain (O60674 849-1124): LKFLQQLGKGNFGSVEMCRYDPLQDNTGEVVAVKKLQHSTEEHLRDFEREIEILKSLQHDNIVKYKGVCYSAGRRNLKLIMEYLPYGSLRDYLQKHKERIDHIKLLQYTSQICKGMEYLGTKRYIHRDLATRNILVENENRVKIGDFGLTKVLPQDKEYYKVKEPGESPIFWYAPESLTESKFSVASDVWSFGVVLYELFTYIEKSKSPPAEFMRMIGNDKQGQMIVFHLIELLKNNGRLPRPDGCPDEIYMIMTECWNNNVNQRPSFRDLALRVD

Turning to `O=C([C@H]1C[C@@H]1CO)N1C2CCC1CN(c1ncnn3cc(-c4cnn(C(F)F)c4)cc13)C2` (racemic) [Example 38, Rac-(3-(6-(1-(difluoromethyl)-1H-pyrazol-4-yl)pyrrolo[2,1-f][1,2,4]triazin-4-yl)-3,8-diazabicyclo[3.2.1]octan-8-yl)((1S,2S)-2-(hydroxymethyl)cyclopropyl)methanone], the IC50 in assay [1] was 8260 nM; in assay [2], at least 10000 nM; in assay [3], 1640 nM; in assay [4], 326 nM.

For the compound `O=C([C@H]1C[C@H]1F)N1C2CCC1CN(c1ncnn3cc(-c4cnn(C(F)F)c4)cc13)C2` (racemic) [Example 46, Rac-(3-(6-(1-(difluoromethyl)-1H-pyrazol-4-yl)pyrrolo[2,1-f][1,2,4]triazin-4-yl)-3,8-diazabicyclo[3.2.1]octan-8-yl)((1R,2R)-2-fluorocyclopropyl)methanone], the 50% inhibitory concentration (IC50) is 9740 nM in assay [1], 6110 nM in assay [2], 1230 nM in assay [3] and 668 nM in assay [4].

For `N#C[C@@H]1C[C@@H]1C(=O)N1C2CCC1CN(c1ncnn3cc(-c4cnn(C(F)F)c4)cc13)C2` (racemic) [Example 47, Rac-(1R,2S)-2-(3-(6-(1-(difluoromethyl)-1H-pyrazol-4-yl)pyrrolo[2,1-f][1,2,4]triazin-4-yl)-3,8-diazabicyclo[3.2.1]octane-8-carbonyl)cyclopropane-1-carbonitrile], the IC50 was determined as 8360 nM in assay [1], 6070 nM in assay [2], 2530 nM in assay [3] and 783 nM in assay [4].

In the case of `N#C[C@H]1C[C@@H]1C(=O)N1C2CCC1CN(c1ncnn3cc(-c4cnn(C(F)F)c4)cc13)C2` (racemic) [Example 53, Rac-(1S,2S)-2-(3-(6-(1-(difluoromethyl)-1H-pyrazol-4-yl)pyrrolo[2,1-f][1,2,4]triazin-4-yl)-3,8-diazabicyclo[3.2.1]octane-8-carbonyl)cyclopropane-1-carbonitrile], the half-inhibitory concentration (IC50) in assay [1] was found to be 3380 nM; in assay [2] it was 7370 nM; in assay [3], 840 nM; in assay [4], 166 nM.

Turning to `O=C([C@H]1C[C@@H]1F)N1C2CCC1CN(c1ncnn3cc(-c4cnn(C(F)F)c4)cc13)C2` (racemic) [Example 54, Rac-(3-(6-(1-(difluoromethyl)-1H-pyrazol-4-yl)pyrrolo[2,1-f][1,2,4]triazin-4-yl)-3,8-diazabicyclo[3.2.1]octan-8-yl)((1R,2S)-2-fluorocyclopropyl)methanone], the 50% inhibitory concentration (IC50) in assay [1] worked out at 1320 nM; in assay [2], 4230 nM; in assay [3] it was 645 nM; in assay [4], 37.1 nM.

As for `Cn1cc(-c2cc3c(N4CC5CCC(C4)N5C(=O)[C@H]4C[C@H]4F)ncnn3c2)cn1` (racemic) [Example 60, Rac-((1R,2R)-2-fluorocyclopropyl)(3-(6-(1-methyl-1H-pyrazol-4-yl)pyrrolo[2,1-f][1,2,4]triazin-4-yl)-3,8-diazabicyclo[3.2.1]octan-8-yl)methanone], the 50% inhibitory concentration (IC50) was 8090 nM in assay [1], 3080 nM in assay [2], 1340 nM in assay [3] and 563 nM in assay [4].

Regarding `Cn1cc(-c2cc3c(N4CC5CCC(C4)N5C(=O)[C@H]4C[C@@H]4F)ncnn3c2)cn1` (racemic) [Example 61, Rac-((1R,2S)-2-fluorocyclopropyl)(3-(6-(1-methyl-1H-pyrazol-4-yl)pyrrolo[2,1-f][1,2,4]triazin-4-yl)-3,8-diazabicyclo[3.2.1]octan-8-yl)methanone], the IC50 turned out to be 1870 nM in assay [1], 3760 nM in assay [2], 992 nM in assay [3] and 37.7 nM in assay [4].

Regarding `Cn1cc(-c2cc3c(N4CC5CCC(C4)N5C(=O)[C@H]4C[C@H]4C#N)ncnn3c2)cn1` (racemic) [Example 65, Rac-(1R,2S)-2-(3-(6-(1-methyl-1H-pyrazol-4-yl)pyrrolo[2,1-f][1,2,4]triazin-4-yl)-3,8-diazabicyclo[3.2.1]octane-8-carbonyl)cyclopropane-1-carbonitrile], the half-maximal inhibitory concentration (IC50) in assay [1] is 9840 nM; in assay [2], 6790 nM; in assay [3], 6090 nM; in assay [4], 1210 nM.

For the compound `Cn1cc(-c2cc3c(N4CC5CCC(C4)N5C(=O)[C@H]4C[C@@H]4C#N)ncnn3c2)cn1` (racemic) [Example 66, Rac-(1S,2S)-2-(3-(6-(1-methyl-1H-pyrazol-4-yl)pyrrolo[2,1-f][1,2,4]triazin-4-yl)-3,8-diazabicyclo[3.2.1]octane-8-carbonyl)cyclopropane-1-carbonitrile], the IC50 in assay [1] came to 3610 nM; in assay [2], 5540 nM; in assay [3] it was 1510 nM; in assay [4], 242 nM.

For `O=C([C@H]1C[C@@H]1CO)N1C2CCC1CN(c1ncnn3cc(-c4cnn(C(F)F)c4)cc13)C2` (single isomer, unassigned) [Example 39], the concentration for half-maximal inhibition (IC50) was determined as 9090 nM in assay [1], 6380 nM in assay [2], 2130 nM in assay [3] and 762 nM in assay [4].

Consider `O=C([C@@H]1C[C@H]1CO)N1C2CCC1CN(c1ncnn3cc(-c4cnn(C(F)F)c4)cc13)C2` (single isomer, unassigned) [Example 40], for which the IC50 in assay [1] is 9400 nM; in assay [2], at least 10000 nM; in assay [3] it was 5120 nM; in assay [4] it was 289 nM.

Consider `O=C([C@H]1C[C@H]1F)N1C2CCC1CN(c1ncnn3cc(-c4cnn(C(F)F)c4)cc13)C2` (single isomer, unassigned) [Example 73], for which the concentration for half-maximal inhibition (IC50) in assay [1] was at least 10000 nM; in assay [2] it was 8860 nM; in assay [3] it was 2350 nM; in assay [4] it was 987 nM.

As for `Cn1cc(-c2cc3c(N4CC5CCC(C4)N5C(=O)[C@@H]4C[C@H]4C#N)ncnn3c2)cn1` (single isomer, unassigned) [Example 74], the IC50 in assay [1] was 1910 nM; in assay [2], 4040 nM; in assay [3], 1280 nM; in assay [4] it was 126 nM.

With `O=C([C@H]1C[C@@H]1F)N1C2CCC1CN(c1ncnn3cc(-c4cnn(C(F)F)c4)cc13)C2` (single isomer, unassigned) [Example 75], the 50% inhibitory concentration (IC50) in assay [1] was at least 10000 nM; in assay [2], 5060 nM; in assay [3] it was 1580 nM; in assay [4], 456 nM.

`O=C([C@H]1CC1(F)F)N1C2CCC1CN(c1ncnn3cc(-c4cnn(C(F)F)c4)cc13)C2` (single isomer, unassigned) [Example 77]: the IC50 in assay [1] was found to be 1410 nM; in assay [2], 8880 nM; in assay [3], 1290 nM; in assay [4], 46.3 nM.

`N#C[C@@H]1C[C@H]1C(=O)N1C2CCC1CN(c1ncnn3cc(-c4cnn(C(F)F)c4)cc13)C2` (single isomer, unassigned) [Example 78]: the concentration for half-maximal inhibition (IC50) in assay [1] stood at 1510 nM; in assay [2], 6880 nM; in assay [3] it was 869 nM; in assay [4], 120 nM.

Take `Cn1cc(-c2cc3c(N4CC5CCC(C4)N5C(=O)[C@H]4C[C@H]4F)ncnn3c2)cn1` (single isomer, unassigned) [Example 79]: the IC50 in assay [1] is at least 10000 nM; in assay [2] it was at least 10000 nM; in assay [3], 9330 nM; in assay [4] it was 626 nM.

For `Cn1cc(-c2cc3c(N4CC5CCC(C4)N5C(=O)[C@H]4C[C@@H]4F)ncnn3c2)cn1` (single isomer, unassigned) [Example 81], the IC50 in assay [1] came out at 1450 nM; in assay [2], 5610 nM; in assay [3], 1420 nM; in assay [4], 31.2 nM.

Consider `Cn1cc(-c2cc3c(N4CC5CCC(C4)N5C(=O)[C@H]4C[C@H]4C#N)ncnn3c2)cn1` (single isomer, unassigned) [Example 85], for which the IC50 in assay [1] amounted to 10000 nM; in assay [2], 4450 nM; in assay [3], 3310 nM; in assay [4], 751 nM.

Consider `O=C([C@@H]1C[C@H]1F)N1C2CCC1CN(c1ccnn3cc([C@H]4CC4(F)F)cc13)C2` (single isomer, unassigned) [Example 135], for which the half-inhibitory concentration (IC50) in assay [1] was 8220 nM; in assay [2], at least 10000 nM; in assay [3] it was 2010 nM; in assay [4], 125 nM.

As to `O=C([C@@H]1C[C@H]1F)N1C2CCC1CN(c1ccnn3cc([C@@H]4CC4(F)F)cc13)C2` (single isomer, unassigned) [Example 136], the IC50 is at least 10000 nM in assay [1], at least 10000 nM in assay [2], 6180 nM in assay [3] and 381 nM in assay [4].

For the origin of these results see patent US20240360157A1, “TYK2 INHIBITORS” (BIOGEN MA INC., priority 2021, published 2024).
